Results from patent US12180191B1, “2-[(1H-benzimidazol-2-yl)imino]-5,5-diphenylimidazolidin-4-one as an antimicrobial compound” (KING FAISAL UNIVERSITY, priority 2023, dated 2024).

Experiments:
Assay type in all cases: cell-based
Escherichia coli = assay: Agar plate disc-diffusion, antibacterial inhibition zone; conditions: nutrient agar, 37° C., 48 hours
Procedure: (§1) The agar plate disc-diffusion method was applied. […] The discs were then placed onto the surface of agar plates (nutrient agar for bacteria and Sabouraud's dextrose agar for fungi) seeded with the test organism. Each plate contained 15 mL of the agar medium, previously seeded with 0.2 mL of the broth culture of each organism pregrown for 18 hours. The plates were incubated at 37° C. for 48 hours, and 72 hours for fungi. The inhibition zones were measured in millimeter. Discs impregnated with DMSO were used as a control, and its inhibition zone was subtracted from the tested compound actual inhibition zone.
(§2) The results of the antimicrobial testing can be observed in Tables 1 and 2, below, with ciprofloxacin serving as a reference.

Pseudomonas aeruginosa = assay: as above; conditions: nutrient agar, 37° C., 48 hours
Procedure: as §1, §2

Bacillus cereus = assay: as above; conditions: nutrient agar, 37° C., 48 hours
Procedure: as §1, §2

Staphylococcus aureus = assay: as above; conditions: nutrient agar, 37° C., 48 hours
Procedure: (§3) The agar plate disc-diffusion method was applied. Sterilized filter papers (6 mm in diameter) were wetted with 10 μL of a solution of 2-[(1H-benzimidazol-2-yl)imino]-5,5-diphenylimidazolidin-4-one (3) to be tested, containing 10 mg/mL in DMSO, and the discs were allowed to air dry. The discs were then placed onto the surface of agar plates (nutrient agar for bacteria and Sabouraud's dextrose agar for fungi) seeded with the test organism. Each plate contained 15 mL of the agar medium, previously seeded with 0.2 mL of the broth culture of each organism pregrown for 18 hours. The plates were incubated at 37° C. for 48 hours, and 72 hours for fungi. The inhibition zones were measured in millimeter. Discs impregnated with DMSO were used as a control, and its inhibition zone was subtracted from the tested compound actual inhibition zone.
as §2

Aspergillus flavus = assay: Agar plate disc-diffusion, antifungal inhibition zone; conditions: Sabouraud's dextrose agar, 72 hours
Procedure: as §3, §2

[1] = tested on: Chrysosporium keratinophilum; assay: as above; conditions: Sabouraud's dextrose agar, 72 hours
Procedure: as §1, §2

[2] = A = concentration of comp. = 10,000 μL
[3] = B = concentration of comp. = 30.000 μL
[4] = C = concentration of comp. = 50,000 μL

## O=C(O)c1cn(C2CC2)c2cc(N3CCNCC3)c(F)cc2c1=O [Cip., ciprofloxacin]
Escherichia coli; [2]
  inhibition zone, Escherichia coli: 30 millimeter
Escherichia coli; [3]
  inhibition zone, Escherichia coli: 39 millimeter
Escherichia coli; [4]
  inhibition zone, Escherichia coli: 60 millimeter
Pseudomonas aeruginosa; [2]
  inhibition zone, Pseudomonas aeruginosa: 29 millimeter
Pseudomonas aeruginosa; [3]
  inhibition zone, Pseudomonas aeruginosa: 30 millimeter
Pseudomonas aeruginosa; [4]
  inhibition zone, Pseudomonas aeruginosa: 53 millimeter
Bacillus cereus; [2]
  inhibition zone, Bacillus Cereus: 29 millimeter
Bacillus cereus; [3]
  inhibition zone, Bacillus Cereus: 31 millimeter
Bacillus cereus; [4]
  inhibition zone, Bacillus Cereus: 42 millimeter
Staphylococcus aureus; [2]
  inhibition zone, Staphylococcus aureus: 42 millimeter
Staphylococcus aureus; [3]
  inhibition zone, Staphylococcus aureus: 44 millimeter
Staphylococcus aureus; [4]
  inhibition zone, Staphylococcus aureus: 53 millimeter
Aspergillus flavus; [2]
  inhibition zone, Aspergillus flavus: 29 millimeter
Aspergillus flavus; [3]
  inhibition zone, Aspergillus flavus: 30 millimeter
Aspergillus flavus; [4]
  inhibition zone, Aspergillus flavus: 42 millimeter
[1]; [2]
  inhibition zone, Chrysosporium keratinophilum: 29 millimeter
[1]; [3]
  inhibition zone, Chrysosporium keratinophilum: 30 millimeter
[1]; [4]
  inhibition zone, Chrysosporium keratinophilum: 53 millimeter

## O=C1N/C(=N/c2nc3ccccc3[nH]2)NC1(c1ccccc1)c1ccccc1 [Compound 3, 2-[(1H-benzimidazol-2-yl)imino]-5,5-diphenylimidazolidin-4-one]
Escherichia coli; [2]
  inhibition zone, Escherichia coli: 27 millimeter
Escherichia coli; [3]
  inhibition zone, Escherichia coli: 36 millimeter
Escherichia coli; [4]
  inhibition zone, Escherichia coli: 50 millimeter
Pseudomonas aeruginosa; [2]
  inhibition zone, Pseudomonas aeruginosa: 25 millimeter
Pseudomonas aeruginosa; [3]
  inhibition zone, Pseudomonas aeruginosa: 32 millimeter
Pseudomonas aeruginosa; [4]
  inhibition zone, Pseudomonas aeruginosa: 43 millimeter
Bacillus cereus; [2]
  inhibition zone, Bacillus Cereus: 18 millimeter
Bacillus cereus; [3]
  inhibition zone, Bacillus Cereus: 24 millimeter
Bacillus cereus; [4]
  inhibition zone, Bacillus Cereus: 38 millimeter
Staphylococcus aureus; [2]
  inhibition zone, Staphylococcus aureus: 16 millimeter
Staphylococcus aureus; [3]
  inhibition zone, Staphylococcus aureus: 20 millimeter
Staphylococcus aureus; [4]
  inhibition zone, Staphylococcus aureus: 30 millimeter
Aspergillus flavus; [2]
  inhibition zone, Aspergillus flavus: 18 millimeter
Aspergillus flavus; [3]
  inhibition zone, Aspergillus flavus: 23 millimeter
Aspergillus flavus; [4]
  inhibition zone, Aspergillus flavus: 35 millimeter
[1]; [2]
  inhibition zone, Chrysosporium keratinophilum: 24 millimeter
[1]; [3]
  inhibition zone, Chrysosporium keratinophilum: 29 millimeter
[1]; [4]
  inhibition zone, Chrysosporium keratinophilum: 49 millimeter
